In patent US11072588B2, “Barbituric acid derivatives comprising cationic and lipophilic groups” (UNIVERSITETET I TROMSØ—NORGES ARKTISKE UNIVERSITET, priority 2017, dated 2021):
In brackets after ≈: the same amount, converted by molar mass.

How the values were obtained:
E. faecium K36-18 = experiment: MIC, multi-resistant clinical isolate; assay type: cell-based, Enterococcus faecium
Description: (§1) Working solutions of the test derivatives were prepared with up to 100% DMSO and stored at −20° C. If necessary, the solutions were heated to 40-80° C. before testing to facilitate complete dissolution. Double-distilled water was used in all dilutions prepared. […] A microdilution susceptibility test was used for MIC determination according to Clinical and Laboratory Standards Institute, “Methods for Dilution Antimicrobial Sisceptibility Tests for Bacteria That Graw Aerobically”, Approved Standard M07-A9, edition 2012, with modifications as described by Igumnova et al (Bioorg Med Chem, 2016, 24 (22), 5884-5894).
(§2) Briefly, the bacterial inoculum was adjusted to approximately 2.5-3×10^4 cells/mL in Mueller-Hinton broth (MHB, Difco Laboratories, USA), and incubated in a ratio of 1:1 with test derivatives in polystyrene 96-well flat-bottom microplates (NUNC, Roskilde, Denmark). Positive growth control (without test derivatives) and negative control (without bacteria) were included. The reference antibiotic was oxytetracycline hydrochloride (Sigma Aldrich, Saint Louis, Mo., USA). The microplates were incubated in an EnVision microplate reader (Perkin-Elmer, Turku, Finland) placed in an incubator set to 35° C. for 48 h. The MIC value was defined as the lowest concentration of derivative resulting in no bacterial growth as determined by OD600 measurement. All derivatives were tested in three parallels.
(§3) The MIC was determined as explained above with some exceptions; working solutions of test derivatives were prepared from concentrated DMSO stocks stored at room temperature, the density of the bacterial inoculum was increased 40× to 1-1.2×10^6 cells/mL, enterococci were incubated in Brain Heart Infusion broth (BHIB, Difco Laboratories, USA), the microplates were incubated for 24 h, and the derivatives were tested in four parallels.

E. faecium 50901530 = experiment: MIC, multi-resistant clinical isolate; assay type: cell-based, Enterococcus faecium
Description: as §1, §2, §3

E. faecium 50758899 = experiment: MIC, multi-resistant clinical isolate; assay type: cell-based, Enterococcus faecium
Description: as §1, §2, §3

E. faecium 50673722 = experiment: MIC, multi-resistant clinical isolate; assay type: cell-based, Enterococcus faecium
Description: as §1, §2, §3

E. faecium TUH50-22 = experiment: MIC, multi-resistant clinical isolate; assay type: cell-based, Enterococcus faecium
Description: as §1, §2, §3

P. aeruginosa 50692520 = experiment: MIC, multi-resistant clinical isolate; assay type: cell-based, Pseudomonas aeruginosa
Description: as §1, §2, §3

P. aeruginosa K44-24 = experiment: MIC, multi-resistant clinical isolate; assay type: cell-based, Pseudomonas aeruginosa
Description: as §1, §2, §3

P. aeruginosa K34-7 = experiment: MIC, multi-resistant clinical isolate; assay type: cell-based, Pseudomonas aeruginosa
Description: as §1, §2, §3

P. aeruginosa 50692172 = experiment: MIC, multi-resistant clinical isolate; assay type: cell-based, Pseudomonas aeruginosa
Description: as §1, §2, §3

P. aeruginosa K34-73 = experiment: MIC, multi-resistant clinical isolate; assay type: cell-based, Pseudomonas aeruginosa; conditions: P. aeruginosa K34-73
Description: as §1, §2, §3

E. coli 50579417 = experiment: MIC, multi-resistant clinical isolate; assay type: cell-based, Escherichia coli
E. coli 50857972 = experiment: MIC, multi-resistant clinical isolate; assay type: cell-based, Escherichia coli
E. coli 50676002 = experiment: MIC, multi-resistant clinical isolate; assay type: cell-based, Escherichia coli; conditions: E. coli 50676002
E. coli 50639799 = experiment: MIC, multi-resistant clinical isolate; assay type: cell-based, Escherichia coli
K. pneumoniae 50667959 = experiment: MIC, multi-resistant clinical isolate; assay type: cell-based, Klebsiella pneumoniae
Description: as §1, §2, §3

K. pneumoniae 50625602 = experiment: MIC, multi-resistant clinical isolate; assay type: cell-based, Klebsiella pneumoniae
Description: as §1, §2, §3

K. pneumoniae K66-45 = experiment: MIC, multi-resistant clinical isolate; assay type: cell-based, Klebsiella pneumoniae
Description: as §1, §2, §3

K. pneumoniae 50531633 = experiment: MIC, multi-resistant clinical isolate; assay type: cell-based, Klebsiella pneumoniae; conditions: K. pneumoniae 50531633, resistant to colistin
Description: as §1, §2, §3

K. pneumoniae K47-25 = experiment: MIC, multi-resistant clinical isolate; assay type: cell-based, Klebsiella pneumoniae; conditions: K. pneumoniae K47-25, resistant to colistin
Description: as §1, §2, §3

[1] = test system: panel of 30 multi-resistant clinical isolates of Gram-positive and Gram-negative bacteria; experiment: MIC screening, ranges over the panel of clinical isolates; assay type: cell-based; conditions: Enterococcus faecium, read-out: MIC values against the Gram-positive isolates of S. aurues and E. faecium
Description: as §1, §2, §3

[2] = test system: Pseudomonas aeruginosa PA01, DSM 19880 (ATCC 15692); experiment: MIC assay, antibiotic susceptible reference strain; assay type: cell-based; conditions: Pseudomonas aeruginosa, read-out: Antimicrobial activity (MIC) P. a
Description: as §1, §2

[3] = test system: Staphylococcus aureus ATCC 9144; experiment: MIC assay, antibiotic susceptible reference strain; assay type: cell-based; conditions: Staphylococcus aureus, ATCC9144, read-out: Antimicrobial activity (MIC) S. a
Description: as §1, §2

[4] = test system: Escherichia coli ATCC 25922; experiment: MIC assay, antibiotic susceptible reference strain; assay type: cell-based; conditions: Escherichia coli, ATCC25922, read-out: Antimicrobial activity (MIC) E. c
Description: as §1, §2

[5] = Enterococcus faecium, read-out: Antimicrobial activity (MIC)
[6] = Pseudomonas aeruginosa, read-out: Antimicrobial activity (MIC)
[7] = Escherichia coli, read-out: Antimicrobial activity (MIC)
[8] = Klebsiella pneumoniae, read-out: Antimicrobial activity (MIC)

Compound: N=C(N)NCCCCN1C(=O)N(CCCCNC(=N)N)C(=O)C(Cc2ccc3ccccc3c2)(Cc2ccc3ccccc3c2)C1=O [8(iv), 1,1′-(4,4′-(5,5-bis(naphthalen-2-ylmethyl)-2,4,6-trioxodihydropyrimidine-1,3(2H,4H)-diyl)bis(butane-4,1-diyl))-diguanidine]
- MIC (E. faecium K36-18; Enterococcus faecium, K3618, read-out: Antimicrobial activity (MIC)): 16 µg/mL (≈ 25.2 µM)
- selectivity index (EC50/MIC) (E. faecium K36-18; RBC EC50 / MIC, E. faecium K36-18): (8)
- MIC (E. faecium 50901530; [5]): 8 µg/mL (≈ 12.6 µM)
- selectivity index (EC50/MIC) (E. faecium 50901530; RBC EC50 / MIC): (17)
- MIC (E. faecium 50758899; [5]): 16 µg/mL (≈ 25.2 µM)
- selectivity index (EC50/MIC) (E. faecium 50758899; RBC EC50 / MIC): (8)
- MIC (E. faecium 50673722; [5]): 16 µg/mL (≈ 25.2 µM)
- selectivity index (EC50/MIC) (E. faecium 50673722; RBC EC50 / MIC): (8)
- MIC (E. faecium TUH50-22; Enterococcus faecium, TUH5022, read-out: Antimicrobial activity (MIC)): 8 µg/mL (≈ 12.6 µM)
- selectivity index (EC50/MIC) (E. faecium TUH50-22; RBC EC50 / MIC): (17)
- MIC (P. aeruginosa 50692520; [6]): 32 µg/mL (≈ 50.4 µM)
- selectivity index (EC50/MIC) (P. aeruginosa 50692520; RBC EC50 / MIC): (4)
- MIC (P. aeruginosa K44-24; Pseudomonas aeruginosa, K4424, read-out: Antimicrobial activity (MIC)): 32 µg/mL (≈ 50.4 µM)
- selectivity index (EC50/MIC) (P. aeruginosa K44-24; RBC EC50 / MIC): (4)
- MIC (P. aeruginosa K34-7; Pseudomonas aeruginosa, K347, read-out: Antimicrobial activity (MIC)): 32 µg/mL (≈ 50.4 µM)
- selectivity index (EC50/MIC) (P. aeruginosa K34-7; RBC EC50 / MIC, P. aeruginosa K34-7): (4)
- MIC (P. aeruginosa 50692172; [6]): 32 µg/mL (≈ 50.4 µM)
- selectivity index (EC50/MIC) (P. aeruginosa 50692172; RBC EC50 / MIC): (4)
- MIC (P. aeruginosa K34-73; Pseudomonas aeruginosa, K3473, read-out: Antimicrobial activity (MIC)): 32 µg/mL (≈ 50.4 µM)
- selectivity index (EC50/MIC) (P. aeruginosa K34-73; RBC EC50 / MIC): (4)
- MIC (E. coli 50579417; [7]): 16 µg/mL (≈ 25.2 µM)
- selectivity index (EC50/MIC) (E. coli 50579417; RBC EC50 / MIC): (8)
- MIC (E. coli 50857972; [7]): 8 µg/mL (≈ 12.6 µM)
- selectivity index (EC50/MIC) (E. coli 50857972; RBC EC50 / MIC): (17)
- MIC (E. coli 50676002; [7]): 8 µg/mL (≈ 12.6 µM)
- selectivity index (EC50/MIC) (E. coli 50676002; RBC EC50 / MIC): (17)
- MIC (E. coli 50639799; [7]): 8 µg/mL (≈ 12.6 µM)
- selectivity index (EC50/MIC) (E. coli 50639799; RBC EC50 / MIC): (17)
- MIC (K. pneumoniae 50667959; [8]): 16 µg/mL (≈ 25.2 µM)
- selectivity index (EC50/MIC) (K. pneumoniae 50667959; RBC EC50 / MIC): (8)
- MIC (K. pneumoniae 50625602; [8]): 16 µg/mL (≈ 25.2 µM)
- selectivity index (EC50/MIC) (K. pneumoniae 50625602; RBC EC50 / MIC): (8)
- MIC (K. pneumoniae K66-45; Klebsiella pneumoniae, K6645, read-out: Antimicrobial activity (MIC)): 16 µg/mL (≈ 25.2 µM)
- selectivity index (EC50/MIC) (K. pneumoniae K66-45; RBC EC50 / MIC, K. pneumoniae K66-45): (8)
- MIC (K. pneumoniae 50531633; Klebsiella pneumoniae, 24 h, read-out: Antimicrobial activity (MIC)): 16 µg/mL (≈ 25.2 µM)
- selectivity index (EC50/MIC) (K. pneumoniae 50531633; RBC EC50 / MIC): (8)
- MIC (K. pneumoniae K47-25; Klebsiella pneumoniae, K4725, 24 h, read-out: Antimicrobial activity (MIC)): 16 µg/mL (≈ 25.2 µM)
- selectivity index (EC50/MIC) (K. pneumoniae K47-25; RBC EC50 / MIC): (8)
- MIC [1]: 8 to 16 µg/mL (≈ 12.6 to 25.2 µM)
- MIC [2]: 8 µg/mL (≈ 12.6 µM)
- MIC [3]: 1 µg/mL (≈ 1.58 µM)
- MIC [4]: 1 µg/mL (≈ 1.58 µM)
